Tests used:
PSMA (FOLH1) = target: T1, PSMA (FOLH1) (Homo sapiens, UniProt Q04609); experiment: In vitro inhibition of NAALADase activity in LNCaP membrane extracts; assay type: biochemical; conditions: crude membrane extracts from LNCaP cells; release of [3H]-Glutamate from [3H]NAAG, pH7.4, 30 min at 37° C.; read-out: IC50 with respect to NAALADase activity
T1 construct: protein extracted from the membrane fraction of LNCaP cells; host or cells: LNCaP cells (crude membrane extract)
Description: NAALADase activity was assayed essentially as described previously (Slusher B S, Tsai G, Yoo G, Coyle J T. Immunocytochemical localization of the N-acetyl-aspartyl-glutamate hydrolyzing enzyme N-acetylated alpha-linked acidic dipeptidase [NAALADase]. J Comp Neurol 1992; 315:217-229) in crude membrane extracts from LNCaP tissue culture cells (ref ATCC CRL-1740). Briefly, the release of [3H]-Glutamate from [3H] N-acetyl-aspartyl-glutamate (NAAG) in 50 mM Tris-Cl buffer pH7.4 after 30 min at 37° C. was measured using 1-5 μg/ml of protein extracted from the membrane fraction of LNCaP cells; substrate and product were resolved by cation-exchange liquid chromatography.

LNCaP xenografts [1] = experiment: PET/CT-imaging in LNCaP-tumor bearing mice; assay type: in vivo
LNCaP xenografts [2] = experiment: PET/CT-imaging in LNCaP-tumor bearing mice; assay type: in vivo; conditions: 50-70 min after injection of ~10 MBq
Description: Example F13 was imaged on a microPET/CT (Inveon, Siemens) in LNCaP tumor-bearing mice 50-70 min after injection of ˜10 MBq radiotracer Example F13.
Example F14 was imaged on a microPET/CT (Inveon, Siemens) in LNCaP tumor-bearing mice 50-70 min after injection of ˜10 MBq radiotracer Example F14.

[3] = Biodistribution in LNCaP bearing nude mice; assay type: in vivo
Description: Male nude mice were implanted subcutaneously with 10 million LNCaP tumor cells, which were freshly expanded in a sterilized solution phosphate-buffered saline (PBS, pH 7.4). 4 weeks after inoculation the mice were injected into the tail vein with 150 kBq of radiolabeled Example F13, diluted in PBS (total injected volume 100 μl). At 30, 60, 120, and 180 min intervals, the mice (in groups of 3) were sacrificed and the organs of interest were collected, rinsed of excess blood, weighed and counted in a gamma-counter.

[4] = Stability in human plasma in vitro (TLC); assay type: in vitro ADME
Description: Stability of Example F13 was investigated in human plasma in vitro. The Example was analyzed by TLC at different time points. […] After two hours, 82% of Example F13 was still intact.

[5] = Metabolic stability, mouse microsomes (TLC); assay type: in vitro ADME; conditions: TLC after different timepoints
Description: (§1) Metabolic stability of Example F13 was assessed by incubating F13 in the presence of mouse, rat, and human microsomes and rat hepatocytes. After different timepoints TLC analysis was performed. No metabolism by microsomes or hepatocytes was found.

[6] = Metabolic stability, rat microsomes (TLC); assay type: in vitro ADME; conditions: TLC after different timepoints
Description: as §1

[7] = Metabolic stability, human microsomes (TLC); assay type: in vitro ADME; conditions: TLC after different timepoints
Description: as §1

[8] = Metabolic stability, rat hepatocytes (TLC); assay type: in vitro ADME; conditions: TLC after different timepoints
Description: as §1

[9] = 110-130 min after injection of ~10 MBq
[10] = 0.5 h after injection of 150 kBq into tail vein
[11] = 1.0 h after injection of 150 kBq into tail vein
[12] = 2.0 h after injection of 150 kBq into tail vein
[13] = 3.0 h after injection of 150 kBq into tail vein

T1 sequence (Q04609 whole entry): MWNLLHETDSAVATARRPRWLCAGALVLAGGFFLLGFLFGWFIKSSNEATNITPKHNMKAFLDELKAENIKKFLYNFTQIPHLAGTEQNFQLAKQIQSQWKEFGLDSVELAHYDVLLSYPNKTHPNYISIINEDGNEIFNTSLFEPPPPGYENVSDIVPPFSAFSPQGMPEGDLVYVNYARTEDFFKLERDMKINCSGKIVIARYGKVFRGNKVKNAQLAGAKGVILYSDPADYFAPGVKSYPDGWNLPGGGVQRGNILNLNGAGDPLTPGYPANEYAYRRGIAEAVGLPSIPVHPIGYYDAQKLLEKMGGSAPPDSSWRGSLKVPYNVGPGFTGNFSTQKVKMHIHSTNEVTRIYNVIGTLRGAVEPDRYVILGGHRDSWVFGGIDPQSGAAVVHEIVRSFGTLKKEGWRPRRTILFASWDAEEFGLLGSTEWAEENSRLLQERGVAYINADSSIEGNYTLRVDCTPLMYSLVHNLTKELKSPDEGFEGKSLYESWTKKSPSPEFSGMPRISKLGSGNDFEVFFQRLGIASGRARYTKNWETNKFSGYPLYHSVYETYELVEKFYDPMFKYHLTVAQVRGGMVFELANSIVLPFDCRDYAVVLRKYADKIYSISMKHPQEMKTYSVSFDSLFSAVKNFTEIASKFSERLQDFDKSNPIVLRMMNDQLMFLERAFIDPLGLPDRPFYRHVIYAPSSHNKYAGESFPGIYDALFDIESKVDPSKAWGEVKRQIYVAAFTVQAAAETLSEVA

With `O=C(O)C(F)CC(CP(=O)(O)O)C(=O)O` (racemic) [Example F3, rac-2-Fluoro-4-(phosphonomethyl)pentanedioic acid] the IC50 (PSMA (FOLH1)) was 30 nM and the “blocking of tumor-contrast of radiotracer Example F15a” value (LNCaP xenografts [1]; 22 μg non-radioactive Example F3 with ~10 MBq Example F15a, 110-130 min) was “effectively blocked”.
With `O=C(O)C([18F])CC(CP(=O)(O)O)C(=O)O` (racemic) [Example F15a, rac-2-[^18F]-Fluoro-4-(phosphonomethyl)pentanedioic acid] the “background activity in PET/CT image” value (LNCaP xenografts [1]; [9]) was “very low background activity”, the “kidney and bladder uptake in PET/CT image” value (from here on “kidney and bladder uptake”) (LNCaP xenografts [1]; [9]) was “strong kidney and bladder uptake” and the renal clearance (LNCaP xenografts [1]; [9]) was “rapid renal clearance”. The “tumor-contrast in PET/CT image” value (LNCaP xenografts [1]; [9]) was “High tumor-contrast”.
With `O=C(O)[C@H](C[C@@H](F)C(=O)O)CP(=O)(O)O` [Example F8, (2R,4S)-2-Fluoro-4-(phosphonomethyl)pentanedioic acid] the IC50 (PSMA (FOLH1)) was 14 nM.
For `O=C(O)[C@H](C[C@H](F)C(=O)O)CP(=O)(O)O` [Example F10, (2S,4S)-2-Fluoro-4-(phosphonomethyl)pentanedioic acid], the IC50 (PSMA (FOLH1)) was 7 nM.
For `O=C(O)[C@H](C[C@H]([18F])C(=O)O)CP(=O)(O)O` [Example F13, (2S,4S)-2-[^18F]-Fluoro-4-(phosphonomethyl)pentanedioic acid], the “background activity in PET/CT image” value (LNCaP xenografts [2]) was “very low background activity”, the “kidney and bladder uptake” value (LNCaP xenografts [2]) was “strong kidney and bladder uptake” and the renal clearance (LNCaP xenografts [2]) was “rapid renal clearance”. For the same compound, the “tumor-contrast in PET/CT image” value (LNCaP xenografts [2]) was “High tumor-contrast”, the “% Dosis/g adrenals” value [3, 10] was 3.31 % Dosis/g and the “% Dosis/g blood” value [3, 10] was 0.79 % Dosis/g. The “% Dosis/g bone” value [3, 10] was 2.61 % Dosis/g, the “% Dosis/g brain” value [3, 10] was 0.05 % Dosis/g and the “% Dosis/g fat” value [3, 10] was 0.78 % Dosis/g. For the same compound, the “% Dosis/g heart” value [3, 10] was 0.53 % Dosis/g, the “% Dosis/g intestine” value [3, 10] was 0.23 % Dosis/g and the “% Dosis/g kidney” value [3, 10] was 105.78 % Dosis/g. The “% Dosis/g liver” value [3, 10] was 0.40 % Dosis/g, the “% Dosis/g lung” value [3, 10] was 1.12 % Dosis/g and the “% Dosis/g muscle” value [3, 10] was 0.26 % Dosis/g. For the same compound, the “% Dosis/g pankreas” value [3, 10] was 0.45 % Dosis/g, the “% Dosis/g prostate” value [3, 10] was 0.69 % Dosis/g and the “% Dosis/g skin” value [3, 10] was 0.85 % Dosis/g. For the same compound, the “% Dosis/g spleen” value [3, 10] was 3.00 % Dosis/g, the “% Dosis/g stomach” value [3, 10] was 0.51 % Dosis/g and the “% Dosis/g tail” value [3, 10] was 4.69 % Dosis/g. The “% Dosis/g testes” value [3, 10] was 0.76 % Dosis/g, the “% Dosis/g thyroid” value [3, 10] was 0.68 % Dosis/g and the “% Dosis/g tumor” value [3, 10] was 5.31 % Dosis/g. For the same compound, the “% Dosis/g adrenals” value [3, 11] was 2.46 % Dosis/g, the “% Dosis/g blood” value [3, 11] was 0.33 % Dosis/g and the “% Dosis/g bone” value [3, 11] was 2.53 % Dosis/g. The “% Dosis/g brain” value [3, 11] was 0.06 % Dosis/g, the “% Dosis/g fat” value [3, 11] was 0.36 % Dosis/g and the “% Dosis/g heart” value [3, 11] was 0.27 % Dosis/g. For the same compound, the “% Dosis/g intestine” value [3, 11] was 0.23 % Dosis/g, the “% Dosis/g kidney” value [3, 11] was 105.40 % Dosis/g and the “% Dosis/g liver” value [3, 11] was 0.42 % Dosis/g. The “% Dosis/g lung” value [3, 11] was 0.49 % Dosis/g, the “% Dosis/g muscle” value [3, 11] was 0.21 % Dosis/g and the “% Dosis/g pankreas” value [3, 11] was 0.22 % Dosis/g. The “% Dosis/g prostate” value [3, 11] was 0.70 % Dosis/g, the “% Dosis/g skin” value [3, 11] was 0.76 % Dosis/g and the “% Dosis/g spleen” value [3, 11] was 2.48 % Dosis/g. For the same compound, the “% Dosis/g stomach” value [3, 11] was 0.26 % Dosis/g, the “% Dosis/g tail” value [3, 11] was 2.37 % Dosis/g and the “% Dosis/g testes” value [3, 11] was 0.50 % Dosis/g. For the same compound, the “% Dosis/g thyroid” value [3, 11] was 0.45 % Dosis/g, the “% Dosis/g tumor” value [3, 11] was 4.08 % Dosis/g and the “% Dosis/g adrenals” value [3, 12] was 0.51 % Dosis/g. The “% Dosis/g blood” value [3, 12] was 0.07 % Dosis/g, the “% Dosis/g bone” value [3, 12] was 1.52 % Dosis/g and the “% Dosis/g brain” value [3, 12] was 0.04 % Dosis/g. The “% Dosis/g fat” value [3, 12] was 0.17 % Dosis/g, the “% Dosis/g heart” value [3, 12] was 0.06 % Dosis/g and the “% Dosis/g intestine” value [3, 12] was 0.28 % Dosis/g. For the same compound, the “% Dosis/g kidney” value [3, 12] was 41.15 % Dosis/g, the “% Dosis/g liver” value [3, 12] was 0.24 % Dosis/g and the “% Dosis/g lung” value [3, 12] was 0.17 % Dosis/g. The “% Dosis/g muscle” value [3, 12] was 0.12 % Dosis/g, the “% Dosis/g pankreas” value [3, 12] was 0.07 % Dosis/g and the “% Dosis/g prostate” value [3, 12] was 0.66 % Dosis/g. For the same compound, the “% Dosis/g skin” value [3, 12] was 0.29 % Dosis/g, the “% Dosis/g spleen” value [3, 12] was 0.42 % Dosis/g and the “% Dosis/g stomach” value [3, 12] was 0.11 % Dosis/g. The “% Dosis/g tail” value [3, 12] was 1.73 % Dosis/g, the “% Dosis/g testes” value [3, 12] was 0.15 % Dosis/g and the “% Dosis/g thyroid” value [3, 12] was 0.18 % Dosis/g. For the same compound, the “% Dosis/g tumor” value [3, 12] was 3.13 % Dosis/g, the “% Dosis/g adrenals” value [3, 13] was 0.573 % Dosis/g and the “% Dosis/g blood” value [3, 13] was 0.08 % Dosis/g. The “% Dosis/g bone” value [3, 13] was 2.12 % Dosis/g, the “% Dosis/g brain” value [3, 13] was 0.03 % Dosis/g and the “% Dosis/g fat” value [3, 13] was 0.35 % Dosis/g. For the same compound, the “% Dosis/g heart” value [3, 13] was 0.08 % Dosis/g, the “% Dosis/g intestine” value [3, 13] was 1.03 % Dosis/g and the “% Dosis/g kidney” value [3, 13] was 46.96 % Dosis/g. For the same compound, the “% Dosis/g liver” value [3, 13] was 0.35 % Dosis/g, the “% Dosis/g lung” value [3, 13] was 0.16 % Dosis/g and the “% Dosis/g muscle” value [3, 13] was 0.06 % Dosis/g. For the same compound, the “% Dosis/g pankreas” value [3, 13] was 0.09 % Dosis/g, the “% Dosis/g prostate” value [3, 13] was 0.53 % Dosis/g and the “% Dosis/g skin” value [3, 13] was 0.24 % Dosis/g. For the same compound, the “% Dosis/g spleen” value [3, 13] was 0.41 % Dosis/g, the “% Dosis/g stomach” value [3, 13] was 0.20 % Dosis/g and the “% Dosis/g tail” value [3, 13] was 2.52 % Dosis/g. For the same compound, the “% Dosis/g testes” value [3, 13] was 0.20 % Dosis/g, the “% Dosis/g thyroid” value [3, 13] was 0.30 % Dosis/g and the “% Dosis/g tumor” value [3, 13] was 4.54 % Dosis/g. For the same compound, the “release of free fluoride upon incubation in human plasma” value ([4]; TLC at different time points) was “did not show increased release of free fluoride”, the “compound still intact in human plasma” value ([4]; after two hours, TLC) was 82% and the metabolism by microsomes [5] was “No metabolism”. The metabolism by microsomes [6] was “No metabolism”, the metabolism by microsomes [7] was “No metabolism” and the metabolism by hepatocytes [8] was “No metabolism”.
In the case of `O=C(O)[C@H](C[C@@H]([18F])C(=O)O)CP(=O)(O)O` [Example F14, (2R,4S)-2-[^18F]-Fluoro-4-(phosphonomethyl)pentanedioic acid], the “background activity in PET/CT image” value (LNCaP xenografts [2]) is reported as “very low background activity”, the “kidney and bladder uptake” value (LNCaP xenografts [2]) is reported as “strong kidney and bladder uptake” and the renal clearance (LNCaP xenografts [2]) is reported as “rapid renal clearance”. The “tumor-contrast in PET/CT image” value (LNCaP xenografts [2]) was “High tumor-contrast”.

From patent US20120328518A1, “PROSTATE SPECIFIC MEMBRANE ANTIGEN INHIBITORS” (PIRAMAL IMAGING SA, priority 2009, published 2012)
